# Assay results taken from patent US9827221B2, “Crystalline solids of a metAP-2 inhibitor and methods of making and using same” (Zafgen, Inc., priority 2010, dated 2017).
# Experiments:
# Assay type in all cases: physicochemical
# [1] = Solubility in diisopropyl ether; details: organic solvent or mixture
# [2] = Solubility in solvent (e.g. aqueous solution that may include a buffer) with pH greater or equal to about 8.0; details: pH 8, aqueous buffer, ca. 20° C.
# [3] = Stability of the crystalline form to grinding (mortar and pestle; PLM, XRPD); details: ca. 500 mg ground with mortar and pestle for approximately 5 minutes
# Protocol: A sample (ca. 500 mg) from the scale-up of crystalline compound as in Example 2 was placed onto a mortar (Agate material, H: 35 mm, L: 77 mm). The sample was then ground using a pestle (length: 80 mm; grinding diameter: 17 mm) for approximately 5 minutes. Throughout the grinding procedure, the sample was allowed to stand for ca. 10 seconds intermittently to ensure that significant heat was not generated. PLM indicated birefrigent material with particle sizes measuring between about 20 μm and 80 μm in length.
# [4] = Solid-form stability of Form C on storage (conversion to Form A)
# Protocol: A sample of amorphous material of 6-O-(4-dimethylaminoethoxy)cinnamoyl fumagillol was exposed to vapors of neat trichloroethane at ambient temperature. The amorphous form readily deliquesced. The deliquesced sample was stored in a cold environment and evaporated to dryness using a Genevac centrifuge evaporator. The sample was then sealed, submerged in dry ice for ca. 15 minutes and stored in a freezer ([…]). The sample remained glassy during storage in the freezer (−20° C., 9 days), and was then stored at 5° C. (9 days), resulting in crystalline, Form C (see FIG. 13 for micrograph). A portion of the Form C sample was left at ambient temperature.
solubility ([1]; 50° C.),solubility ([1]; room temperature (ca. 20° C.)),solubility [2],crystallinity after grinding (XRPD) [3],relative stability of the crystalline forms ([4]; Form C relative to Form A),solid form conversion on storage ([4]; sample left at ambient temperature),solid form conversion on storage ([4]; sample stored at 5° C.),SMILES
~102 mg/mL,~25 mg/mL,< 0.2 mg/mL,remained highly crystalline,–,–,–,"CO[C@@H]1[C@H](OC(=O)/C=C/c2ccc(OCCN(C)C)cc2)CCC2(CO2)[C@H]1C1(C)OC1CC=C(C)C (stereo partly shown) [Form A, 6-O-(4-dimethylaminoethoxy)cinnamoyl fumagillol]"
–,–,–,–,metastable relative to Form A,converted to Form A after three days,converted to Form A after three days,"CO[C@@H]1[C@H](OC(=O)/C=C/c2ccc(OCCN(C)C)cc2)CCC2(CO2)[C@H]1C1(C)OC1CC=C(C)C (stereo partly shown) [Form C, 6-O-(4-dimethylaminoethoxy)cinnamoyl fumagillol]"
